# Data published in patent US12338464B2, “Clonal strains of attenuated vaccinia viruses and methods of use thereof” (priority 2011, dated 2025).
# Key:
# [1] = test system: A549 human lung carcinoma cells; type: cell-based; settings: 5 μM ST-246
# [2] = A549 xenograft: average body weight; settings: 2.5 μM ST-246
# [3] = test system: A549 human lung carcinoma xenografts; test: A549 xenograft: tumor volume; type: in vivo, mouse; settings: 2.5 μM ST-246 in addition to LIVP 5.1.1 or GLV-1h68
structure (smiles),measurement,setting,value
O=C(NN1C(=O)[C@@H]2[C@@H]3C=C[C@@H]([C@H]4C[C@@H]34)[C@@H]2C1=O)c1ccc(C(F)(F)F)cc1 [ST-246],effect of ST-246 on eradication of A549 cells by LIVP 5.1.1 and GLV-1h68,[1],reduced the eradication of A549 cells
same,effect of ST-246 on toxicity of virus,[2],reduced toxicity
same,effect of ST-246 on tumor reduction by virus,[3],decreased the ability of each virus to reduce tumor size
